Source: patent publication US20250114336A1, “USE OF ANTI-RETROVIRAL PROTEASE INHIBITORS FOR THE TREATMENT OF AMYOTROPHIC LATERAL SCLEROSIS (ALS)” (The Regents of the University of Colorado, a body corporate, priority 2023, published 2025)
Entries after “also recorded” stand apart in the source; their conditions may differ.

Target: T1, human PEG10 (Homo sapiens, UniProt Q86TG7)
T1 construct: expressed in transfected cells; host or cells: HEK293
T1 sequence (Q86TG7 1-708): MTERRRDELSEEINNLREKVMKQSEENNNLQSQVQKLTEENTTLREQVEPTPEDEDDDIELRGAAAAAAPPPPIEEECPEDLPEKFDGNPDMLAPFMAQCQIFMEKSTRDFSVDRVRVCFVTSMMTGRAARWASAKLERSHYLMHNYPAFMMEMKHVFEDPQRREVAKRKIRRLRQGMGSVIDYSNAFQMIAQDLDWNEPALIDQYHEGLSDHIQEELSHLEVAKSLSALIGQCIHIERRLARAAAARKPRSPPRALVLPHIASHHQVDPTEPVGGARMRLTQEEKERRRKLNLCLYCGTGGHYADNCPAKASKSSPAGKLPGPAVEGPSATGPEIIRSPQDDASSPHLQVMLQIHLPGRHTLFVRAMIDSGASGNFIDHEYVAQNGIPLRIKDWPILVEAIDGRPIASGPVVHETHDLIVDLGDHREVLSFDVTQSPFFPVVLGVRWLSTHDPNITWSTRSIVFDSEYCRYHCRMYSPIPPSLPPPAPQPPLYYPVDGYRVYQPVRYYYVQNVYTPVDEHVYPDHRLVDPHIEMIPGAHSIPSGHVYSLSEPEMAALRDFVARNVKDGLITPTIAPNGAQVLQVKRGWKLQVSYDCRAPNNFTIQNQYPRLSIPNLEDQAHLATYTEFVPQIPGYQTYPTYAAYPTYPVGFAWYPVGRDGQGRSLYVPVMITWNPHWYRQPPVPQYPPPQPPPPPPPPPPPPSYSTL
Assay: Western blot of PEG10 abundance and self-cleavage in HEK293 cells transfected with human PEG10
Assay type: cell-based
Conditions: HEK293 cells transfected with WT human PEG10, incubated 24 hours with increasing concentrations of drug (up to 50 uM), compared to untreated
Procedure: FIG. 1: Western blot of PEG10 self-cleavage testing with antiretroviral compounds. HEK293 cells were transfected with either WT or a cleavage-incompetent mutant form of human PEG10 and incubated for 24 hours with the indicated concentrations of drug. After 24 hours, cells were lysed and imaged by western blot.
FIG. 2A-D: PEG10 abundance is decreased by ritonavir, but not indinavir. a-d) Bands identified in FIG. 1 were quantified and normalized to Tubulin for a) gag-pol, b) gag, c) CA fragment, and d) CA^NTD fragment. Shown is mean+/−SEM for four representative experiments; one sample from untreated indinavir and 50 uM of indinavir and ritonavir were not collected. Statistics were measured by One-way ANOVA with multiple comparisons to untreated; statistically significant comparisons are shown with asterisks. ANOVA summary significance is shown with straight line.
Shown is mean+/−SEM for four representative experiments; one sample from untreated indinavir and 50 uM of indinavir and ritonavir were not collected. Statistics were measured by One-way ANOVA with multiple comparisons to untreated; statistically significant comparisons are shown with asterisks. ANOVA summary significance is shown with straight line.
Applicants performed an assay using western blot to assess self-cleavage of transfected PEG10 (FIG. 1) with a negative control where the PEG10 protease is mutated. […]

## CC(C)c1nc(CN(C)C(=O)N[C@H](C(=O)N[C@@H](Cc2ccccc2)C[C@H](O)[C@H](Cc2ccccc2)NC(=O)OCc2cncs2)C(C)C)cs1 [ritonavir]
  PEG10 abundance (expression in the cell; bands normalized to Tubulin: gag-pol, gag, CA fragment, CA NTD fragment): decreased; also recorded: uniquely decreases PEG10 expression
  Self-cleavage of PEG10 (ratios gag-pol to gag, CA fragment to gag, CA NTD fragment to gag): modestly affected; also recorded: modest effect
